Reference: ChEMBL document CHEMBL1909046, “DrugMatrix in vitro pharmacology data”

Target: Tyrosine-protein kinase Lck (Homo sapiens, UniProt P06239)
Experiment: DRUGMATRIX: Protein Tyrosine Kinase, LCK enzyme inhibition (substrate: Poly(Glu:Tyr))
Assay type: cell-based, Insect cells
Conditions: insect cells; Not Active = under 50% inhibition at 10 µM

Chain of Tyrosine-protein kinase Lck (P06239 whole entry): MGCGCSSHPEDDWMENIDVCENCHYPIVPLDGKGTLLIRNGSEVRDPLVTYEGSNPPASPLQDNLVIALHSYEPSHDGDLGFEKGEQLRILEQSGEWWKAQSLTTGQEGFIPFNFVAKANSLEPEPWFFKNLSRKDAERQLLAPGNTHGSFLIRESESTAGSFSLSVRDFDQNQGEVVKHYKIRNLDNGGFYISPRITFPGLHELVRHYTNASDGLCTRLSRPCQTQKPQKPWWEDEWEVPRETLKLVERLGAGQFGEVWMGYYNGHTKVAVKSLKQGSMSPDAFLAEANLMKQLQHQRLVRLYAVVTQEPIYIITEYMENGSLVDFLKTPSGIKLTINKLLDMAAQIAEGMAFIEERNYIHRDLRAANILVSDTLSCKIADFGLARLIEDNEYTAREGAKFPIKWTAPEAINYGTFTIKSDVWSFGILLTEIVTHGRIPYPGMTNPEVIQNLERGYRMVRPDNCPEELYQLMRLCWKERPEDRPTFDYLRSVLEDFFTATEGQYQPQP

Structure (SMILES) | IC50
COc1ccc2cc3[n+](cc2c1OC)CCc1cc2c(cc1-3)OCO2.[Cl-] [BERBERINE CHLORIDE] | Not Active
O=C(O)CCNC(=O)c1ccccc1 [BETAMIPRON] | Not Active
CC(=O)Oc1ccc(C(c2ccc(OC(C)=O)cc2)c2ccccn2)cc1 [BISACODYL] | Not Active
Cc1cc2c(OCC(CNC(C)(C)C)OC(=O)c3ccccc3)cccc2[nH]1 (stereo unspecified) [BOPINDOLOL] | Not Active
Brc1c(NC2=NCCN2)ccc2nccnc12 [BRIMONIDINE] | Not Active
CN(C)[C@@H]1C(O)=C(C(N)=O)C(=O)[C@@]2(O)C(O)=C3C(=O)c4c(O)ccc(Cl)c4[C@@](C)(O)[C@H]3C[C@@H]12 [CHLORTETRACYCLINE] | Not Active

Tested on: not listed separately
Experiment: DRUGMATRIX: Glutamate, NMDA, Phencyclidine radioligand binding (ligand: [3H] TCP)
Assay type: cell membranes, Rattus norvegicus, Wistar, Cerebral cortex, Membrane
Conditions: Not Active = under 50% inhibition at 10 µM

Structure (SMILES) | IC50 | Ki
COc1ccc2cc3[n+](cc2c1OC)CCc1cc2c(cc1-3)OCO2.[Cl-] [BERBERINE CHLORIDE] | Not Active | Not Active
O=C(O)CCNC(=O)c1ccccc1 [BETAMIPRON] | Not Active | Not Active
CC(=O)Oc1ccc(C(c2ccc(OC(C)=O)cc2)c2ccccn2)cc1 [BISACODYL] | Not Active | Not Active
Cc1cc2c(OCC(CNC(C)(C)C)OC(=O)c3ccccc3)cccc2[nH]1 (stereo unspecified) [BOPINDOLOL] | Not Active | Not Active
Brc1c(NC2=NCCN2)ccc2nccnc12 [BRIMONIDINE] | Not Active | Not Active
CN(C)[C@@H]1C(O)=C(C(N)=O)C(=O)[C@@]2(O)C(O)=C3C(=O)c4c(O)ccc(Cl)c4[C@@](C)(O)[C@H]3C[C@@H]12 [CHLORTETRACYCLINE] | Not Active | Not Active

Target: T1, D(4) dopamine receptor (Homo sapiens, UniProt P21917)
T1 sequence (P21917 whole entry): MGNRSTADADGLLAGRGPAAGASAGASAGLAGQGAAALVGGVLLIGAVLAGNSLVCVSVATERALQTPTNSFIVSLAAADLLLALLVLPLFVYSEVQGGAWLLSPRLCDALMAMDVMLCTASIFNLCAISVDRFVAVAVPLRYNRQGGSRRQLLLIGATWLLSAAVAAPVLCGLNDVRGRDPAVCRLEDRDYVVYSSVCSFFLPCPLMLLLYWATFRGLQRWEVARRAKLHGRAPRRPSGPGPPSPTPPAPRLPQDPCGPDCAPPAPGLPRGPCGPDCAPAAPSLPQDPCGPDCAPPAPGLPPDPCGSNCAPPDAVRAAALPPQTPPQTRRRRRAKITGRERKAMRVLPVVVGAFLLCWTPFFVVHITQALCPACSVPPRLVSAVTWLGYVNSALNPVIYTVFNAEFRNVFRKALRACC
Experiment: DRUGMATRIX: Dopamine D4.2 radioligand binding (ligand: [3H] Spiperone)
Assay type: cell membranes, CHO-K1, Membrane
Conditions: cho-k1; Not Active = under 50% inhibition at 10 µM

Structure (SMILES) | IC50
COc1ccc2cc3[n+](cc2c1OC)CCc1cc2c(cc1-3)OCO2.[Cl-] [BERBERINE CHLORIDE] | Not Active
O=C(O)CCNC(=O)c1ccccc1 [BETAMIPRON] | Not Active
CC(=O)Oc1ccc(C(c2ccc(OC(C)=O)cc2)c2ccccn2)cc1 [BISACODYL] | Not Active
Cc1cc2c(OCC(CNC(C)(C)C)OC(=O)c3ccccc3)cccc2[nH]1 (stereo unspecified) [BOPINDOLOL] | Not Active
Brc1c(NC2=NCCN2)ccc2nccnc12 [BRIMONIDINE] | Not Active
CN(C)[C@@H]1C(O)=C(C(N)=O)C(=O)[C@@]2(O)C(O)=C3C(=O)c4c(O)ccc(Cl)c4[C@@](C)(O)[C@H]3C[C@@H]12 [CHLORTETRACYCLINE] | Not Active

Target: Cytochrome P450 2C19 (Homo sapiens, UniProt P33261); note: in other assays of this panel Not Active means under 50% inhibition at 10 µM
Conditions: bti-tn-5b1-4

Chain of Cytochrome P450 2C19 (P33261 whole entry): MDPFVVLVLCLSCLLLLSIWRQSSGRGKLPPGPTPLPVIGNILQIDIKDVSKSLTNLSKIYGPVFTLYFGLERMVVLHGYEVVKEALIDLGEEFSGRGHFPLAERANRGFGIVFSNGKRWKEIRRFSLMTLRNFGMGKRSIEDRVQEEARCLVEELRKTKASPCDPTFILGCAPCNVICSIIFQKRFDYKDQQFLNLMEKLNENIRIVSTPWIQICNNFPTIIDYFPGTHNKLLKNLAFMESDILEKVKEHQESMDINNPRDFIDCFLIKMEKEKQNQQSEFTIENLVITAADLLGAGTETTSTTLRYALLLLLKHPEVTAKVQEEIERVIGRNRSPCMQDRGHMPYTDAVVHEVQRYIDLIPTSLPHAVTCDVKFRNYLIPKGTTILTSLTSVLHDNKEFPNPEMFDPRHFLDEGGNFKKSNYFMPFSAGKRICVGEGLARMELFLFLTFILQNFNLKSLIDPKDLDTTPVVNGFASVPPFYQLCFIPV

Structure (SMILES) | IC50 | Ki
COc1ccc2cc3[n+](cc2c1OC)CCc1cc2c(cc1-3)OCO2.[Cl-] [BERBERINE CHLORIDE] | Not Active | Not Active
O=C(O)CCNC(=O)c1ccccc1 [BETAMIPRON] | Not Active | Not Active
CC(=O)Oc1ccc(C(c2ccc(OC(C)=O)cc2)c2ccccn2)cc1 [BISACODYL] | Not Active | Not Active
Cc1cc2c(OCC(CNC(C)(C)C)OC(=O)c3ccccc3)cccc2[nH]1 (stereo unspecified) [BOPINDOLOL] | Not Active | Not Active
Brc1c(NC2=NCCN2)ccc2nccnc12 [BRIMONIDINE] | Not Active | Not Active
CN(C)[C@@H]1C(O)=C(C(N)=O)C(=O)[C@@]2(O)C(O)=C3C(=O)c4c(O)ccc(Cl)c4[C@@](C)(O)[C@H]3C[C@@H]12 [CHLORTETRACYCLINE] | Not Active | Not Active

Target: T2, Nitric oxide synthase, inducible (Mus musculus, UniProt P29477);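 note: inhibition of iNOS enzyme activity measured with L-arginine as substrate; in other assays of this panel Not Active means under 50% inhibition at 10 µM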
T2 sequence (P29477 whole entry): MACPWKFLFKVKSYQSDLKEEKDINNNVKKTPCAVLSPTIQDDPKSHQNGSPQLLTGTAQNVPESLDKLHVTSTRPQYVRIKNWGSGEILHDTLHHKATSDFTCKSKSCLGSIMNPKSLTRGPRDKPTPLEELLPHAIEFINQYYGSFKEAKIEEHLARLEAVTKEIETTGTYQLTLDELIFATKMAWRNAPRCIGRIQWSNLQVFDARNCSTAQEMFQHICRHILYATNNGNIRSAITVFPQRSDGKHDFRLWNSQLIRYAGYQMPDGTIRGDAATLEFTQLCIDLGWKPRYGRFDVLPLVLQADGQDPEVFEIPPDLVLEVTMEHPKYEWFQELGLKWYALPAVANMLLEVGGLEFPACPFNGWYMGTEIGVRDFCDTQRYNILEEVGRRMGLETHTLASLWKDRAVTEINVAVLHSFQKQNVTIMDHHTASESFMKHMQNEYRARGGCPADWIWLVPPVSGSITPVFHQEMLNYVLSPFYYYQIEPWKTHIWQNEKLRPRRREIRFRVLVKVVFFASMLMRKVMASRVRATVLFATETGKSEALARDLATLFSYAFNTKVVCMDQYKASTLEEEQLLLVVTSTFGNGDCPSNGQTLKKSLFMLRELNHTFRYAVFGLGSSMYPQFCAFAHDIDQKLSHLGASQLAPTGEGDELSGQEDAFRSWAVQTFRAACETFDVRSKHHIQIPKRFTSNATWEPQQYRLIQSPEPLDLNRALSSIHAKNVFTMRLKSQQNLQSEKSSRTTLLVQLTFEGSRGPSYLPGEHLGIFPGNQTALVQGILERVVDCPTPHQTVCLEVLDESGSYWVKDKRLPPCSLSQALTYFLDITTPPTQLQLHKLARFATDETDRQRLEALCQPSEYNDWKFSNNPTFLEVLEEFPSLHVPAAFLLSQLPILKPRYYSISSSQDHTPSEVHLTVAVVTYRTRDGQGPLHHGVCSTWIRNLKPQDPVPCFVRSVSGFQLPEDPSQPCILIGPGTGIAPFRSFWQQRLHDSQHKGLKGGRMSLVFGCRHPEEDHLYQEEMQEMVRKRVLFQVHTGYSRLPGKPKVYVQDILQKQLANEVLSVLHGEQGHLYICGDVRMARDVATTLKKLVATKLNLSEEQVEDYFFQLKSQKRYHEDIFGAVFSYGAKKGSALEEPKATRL
Set-up: species or system Escherichia coli
Conditions: not given

Structure (SMILES) | IC50
COc1ccc2cc3[n+](cc2c1OC)CCc1cc2c(cc1-3)OCO2.[Cl-] [BERBERINE CHLORIDE] | Not Active
O=C(O)CCNC(=O)c1ccccc1 [BETAMIPRON] | Not Active
CC(=O)Oc1ccc(C(c2ccc(OC(C)=O)cc2)c2ccccn2)cc1 [BISACODYL] | Not Active
Cc1cc2c(OCC(CNC(C)(C)C)OC(=O)c3ccccc3)cccc2[nH]1 (stereo unspecified) [BOPINDOLOL] | Not Active
Brc1c(NC2=NCCN2)ccc2nccnc12 [BRIMONIDINE] | Not Active
CN(C)[C@@H]1C(O)=C(C(N)=O)C(=O)[C@@]2(O)C(O)=C3C(=O)c4c(O)ccc(Cl)c4[C@@](C)(O)[C@H]3C[C@@H]12 [CHLORTETRACYCLINE] | Not Active

Target: T3, Cytochrome P450 1A2 (Homo sapiens, UniProt P05177); note: in other assays of this panel Not Active means under 50% inhibition at 10 µM
T3 sequence (P05177 whole entry): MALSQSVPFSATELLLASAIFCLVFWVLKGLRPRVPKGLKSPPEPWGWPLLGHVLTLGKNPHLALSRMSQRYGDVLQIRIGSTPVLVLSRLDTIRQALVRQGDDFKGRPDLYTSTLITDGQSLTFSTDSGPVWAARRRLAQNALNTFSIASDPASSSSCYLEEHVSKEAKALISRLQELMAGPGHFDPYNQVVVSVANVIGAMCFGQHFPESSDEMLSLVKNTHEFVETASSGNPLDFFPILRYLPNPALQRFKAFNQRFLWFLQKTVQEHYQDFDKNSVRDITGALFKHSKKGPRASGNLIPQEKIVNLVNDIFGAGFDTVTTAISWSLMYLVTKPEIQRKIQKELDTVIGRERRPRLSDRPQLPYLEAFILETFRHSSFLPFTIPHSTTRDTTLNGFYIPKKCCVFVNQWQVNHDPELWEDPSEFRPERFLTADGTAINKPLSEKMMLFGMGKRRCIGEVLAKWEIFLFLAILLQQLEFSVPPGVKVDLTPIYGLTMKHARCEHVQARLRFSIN
Conditions: bti-tn-5b1-4

Structure (SMILES) | IC50 | Ki
COc1ccc2cc3[n+](cc2c1OC)CCc1cc2c(cc1-3)OCO2.[Cl-] [BERBERINE CHLORIDE] | Not Active | Not Active
O=C(O)CCNC(=O)c1ccccc1 [BETAMIPRON] | Not Active | Not Active
CC(=O)Oc1ccc(C(c2ccc(OC(C)=O)cc2)c2ccccn2)cc1 [BISACODYL] | Not Active | Not Active
Cc1cc2c(OCC(CNC(C)(C)C)OC(=O)c3ccccc3)cccc2[nH]1 (stereo unspecified) [BOPINDOLOL] | Not Active | Not Active
Brc1c(NC2=NCCN2)ccc2nccnc12 [BRIMONIDINE] | Not Active | Not Active
CN(C)[C@@H]1C(O)=C(C(N)=O)C(=O)[C@@]2(O)C(O)=C3C(=O)c4c(O)ccc(Cl)c4[C@@](C)(O)[C@H]3C[C@@H]12 [CHLORTETRACYCLINE] | Not Active | Not Active

Target: Mitogen-activated protein kinase 1 (Homo sapiens, UniProt P28482)
Experiment: DRUGMATRIX: Protein Serine/Threonine Kinase, ERK2 enzyme inhibition (substrate: Myelin Basic Protein)
Set-up: species or system Escherichia coli
Conditions: Not Active = under 50% inhibition at 10 µM

Chain of Mitogen-activated protein kinase 1 (P28482 whole entry): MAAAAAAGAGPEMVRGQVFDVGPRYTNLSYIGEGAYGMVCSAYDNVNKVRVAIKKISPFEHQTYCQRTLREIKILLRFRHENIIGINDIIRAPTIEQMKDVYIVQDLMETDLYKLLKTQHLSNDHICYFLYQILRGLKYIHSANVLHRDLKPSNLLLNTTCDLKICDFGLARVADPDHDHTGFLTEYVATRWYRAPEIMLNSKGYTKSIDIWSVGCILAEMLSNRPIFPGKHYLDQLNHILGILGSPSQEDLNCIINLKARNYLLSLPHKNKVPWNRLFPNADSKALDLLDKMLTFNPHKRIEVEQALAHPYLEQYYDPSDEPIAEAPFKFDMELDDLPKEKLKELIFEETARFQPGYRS

Structure (SMILES) | IC50
COc1ccc2cc3[n+](cc2c1OC)CCc1cc2c(cc1-3)OCO2.[Cl-] [BERBERINE CHLORIDE] | Not Active
O=C(O)CCNC(=O)c1ccccc1 [BETAMIPRON] | Not Active
CC(=O)Oc1ccc(C(c2ccc(OC(C)=O)cc2)c2ccccn2)cc1 [BISACODYL] | Not Active
Cc1cc2c(OCC(CNC(C)(C)C)OC(=O)c3ccccc3)cccc2[nH]1 (stereo unspecified) [BOPINDOLOL] | Not Active
Brc1c(NC2=NCCN2)ccc2nccnc12 [BRIMONIDINE] | Not Active
CN(C)[C@@H]1C(O)=C(C(N)=O)C(=O)[C@@]2(O)C(O)=C3C(=O)c4c(O)ccc(Cl)c4[C@@](C)(O)[C@H]3C[C@@H]12 [CHLORTETRACYCLINE] | Not Active

Target: Carbonic anhydrase 2 (Homo sapiens, UniProt P00918)
Experiment: DRUGMATRIX: Carbonic Anhydrase II enzyme inhibition (substrate: 4-Nitrophenyl acetate (4-NPA))
Assay type: tissue-based
Conditions: erythrocyte; Not Active = under 50% inhibition at 10 µM

Structure (SMILES) | IC50
COc1ccc2cc3[n+](cc2c1OC)CCc1cc2c(cc1-3)OCO2.[Cl-] [BERBERINE CHLORIDE] | Not Active
O=C(O)CCNC(=O)c1ccccc1 [BETAMIPRON] | Not Active
CC(=O)Oc1ccc(C(c2ccc(OC(C)=O)cc2)c2ccccn2)cc1 [BISACODYL] | Not Active
Cc1cc2c(OCC(CNC(C)(C)C)OC(=O)c3ccccc3)cccc2[nH]1 (stereo unspecified) [BOPINDOLOL] | Not Active
Brc1c(NC2=NCCN2)ccc2nccnc12 [BRIMONIDINE] | Not Active
CN(C)[C@@H]1C(O)=C(C(N)=O)C(=O)[C@@]2(O)C(O)=C3C(=O)c4c(O)ccc(Cl)c4[C@@](C)(O)[C@H]3C[C@@H]12 [CHLORTETRACYCLINE] | Not Active
